In data set [1] the test system is Staphylococcus aureus. The experiment in a line: Antibacterial activity against Staphylococcus aureus ATCC 29213 incubated for 18 to 24 hrs by broth microdilution method. The class given is functional. For orientation: Dilution methods test growth across graded concentrations, often in twofold steps.
Data set [2] in a line: Therapeutic index, ratio of MHC for human RBC to geometric mean of peptide MIC for Escherichia coli ATCC 25922. The class given is toxicity. The settings on record: pooled result: one value given for 6 cell lines, strains, targets or settings, read-out: TI.
The test system of data set [3] is Escherichia coli. The data set is described as follows: Antibacterial activity against Escherichia coli UB1005 incubated for 18 to 24 hrs by broth microdilution method. The format is functional.
Data set [4] has as its system Staphylococcus epidermidis. The experiment in a line: Antibacterial activity against Staphylococcus epidermidis ATCC 12228 incubated for 18 to 24 hrs by broth microdilution method. The format is functional.
The nature of data set [5]: Cytotoxicity against mouse RAW264.7 cells assessed as cell survival at <= 32 uM after 24 hrs by MTT assay relative to control. The format is cell-based. The settings on record: RAW264.7 cells, up to 32 µM, read-out: Activity.
In data set [6] the test system is Staphylococcus aureus. The data set is described as follows: Antibacterial activity against Staphylococcus aureus ATCC 25923 incubated for 18 to 24 hrs by broth microdilution method. The class given is functional.
The test system of the next data set is Erythrocyte. The data set is described as follows: Haemolytic activity in human erythrocytes assessed as lowest concentration causing 5% hemolysis after 1 hr. The class given is ADME, cell-based.
Data set [7] has as its system Escherichia coli. The experiment in a line: Antibacterial activity against Escherichia coli ATCC 25922 incubated for 18 to 24 hrs by broth microdilution method. The class given is functional.
The test system of the next data set is Salmonella typhimurium. The data set is described as follows: Antibacterial activity against Salmonella enterica serovar typhimurium C77-31 incubated for 18 to 24 hrs by broth microdilution method. The class given is functional, Salmonella enterica subsp. enterica serovar Typhimurium.
For data set [8], the system named is Staphylococcus aureus. The experiment in a line: Antibacterial activity against Staphylococcus aureus 11011 incubated for 18 to 24 hrs by broth microdilution method. The class given is functional.
The subject of data set [9] is Acinetobacter baumannii. The data set is described as follows: Antibacterial activity against Acinetobacter baumannii AB1901 clinical isolate incubated for 18 to 24 hrs by broth microdilution method. The format is functional.
The subject of data set [10] is Acinetobacter baumannii. The data set is described as follows: Antibacterial activity against Acinetobacter baumannii AB1902 clinical isolate incubated for 18 to 24 hrs by broth microdilution method. The format is functional.
Data set [11] can be described thus: Cytotoxicity against mouse RAW264.7 cells assessed as cell survival at < 32 uM after 24 hrs by MTT assay. The class given is cell-based. The settings on record: read-out: Activity. A general note: Formazan colour is commonly taken as a measure of viable cells.
Data set [12] has as its system Escherichia coli. The experiment in a line: Antibacterial activity against Escherichia coli 20411 clinical isolate incubated for 18 to 24 hrs by broth microdilution method. The class given is functional.
Another data set deals with Pseudomonas aeruginosa. The data set is described as follows: Antibacterial activity against Pseudomonas aeruginosa 25349 clinical isolate incubated for 18 to 24 hrs by broth microdilution method. The format is functional.

From ChEMBL document CHEMBL4311942, “Design of Trp-Rich Dodecapeptides with Broad-Spectrum Antimicrobial Potency and Membrane-Disruptive Mechanism” (J Med Chem, 2019) come the findings set out here.

≈ marks a conversion by molar mass, not a printed value. Where a SMILES comes first, the peptide text is derived from it.

A word on the MIC: it is the lowest concentration that inhibits growth of the organism. A lower MIC goes with a more susceptible organism. As for `CC(C)C[C@H](NC(=O)[C@H](CCCNC(=N)N)NC(=O)[C@H](CC(C)C)NC(=O)[C@H](CCCNC(=N)N)NC(=O)[C@@H](NC(=O)[C@H](CCCCN)NC(=O)[C@H](CC(C)C)NC(=O)[C@H](CCCNC(=N)N)NC(=O)[C@H](CC(C)C)NC(=O)[C@H](CCCNC(=N)N)NC(=O)[C@@H](N)CC(C)C)[C@@H](C)O)C(=O)N[C@@H](CCCCN)C(N)=O` (H-LRLRLKTRLRLK-NH2), the MIC was determined as 32 µM (≈ 50.1 µg/mL) in the data set with Staphylococcus aureus [1]; 4 µM (≈ 6.26 µg/mL) in the data set with Escherichia coli [3]; 64 µM (≈ 100 µg/mL) in data set [4]; 32 µM (≈ 50.1 µg/mL) against Staphylococcus aureus [6]; 4 µM (≈ 6.26 µg/mL) against Escherichia coli [7]; 16 µM (≈ 25 µg/mL) with Salmonella typhimurium. The selectivity ratio in data set [2] worked out at 16. In addition, the viability at 24 h in data set [5] was at least 70%. In addition, the MHC in the data set with Erythrocyte was over 128 µM.
Regarding `CC(C)C[C@H](NC(=O)[C@H](CCCNC(=N)N)NC(=O)[C@H](CCCCN)NC(=O)[C@H](Cc1c[nH]c2ccccc12)NC(=O)[C@@H](NC(=O)[C@H](CCCCN)NC(=O)[C@H](CCCCN)NC(=O)[C@H](CCCNC(=N)N)NC(=O)[C@H](CC(C)C)NC(=O)[C@H](CCCNC(=N)N)NC(=O)[C@@H](N)CCCNC(=N)N)[C@@H](C)O)C(=O)N[C@@H](Cc1c[nH]c2ccccc12)C(N)=O` (H-RRLRKKTWKRLW-NH2), the MIC against Staphylococcus aureus [1] was 64 µM (≈ 110 µg/mL); in the data set on Escherichia coli [3], 32 µM (≈ 55.2 µg/mL); in data set [4], 64 µM (≈ 110 µg/mL); in the data set on Staphylococcus aureus [6] it was over 128 µM; with Escherichia coli [7], 16 µM (≈ 27.6 µg/mL); with Salmonella typhimurium, 64 µM (≈ 110 µg/mL). Besides, the selectivity ratio in data set [2] turned out to be 4.49. In data set [5], the viability at 24 h is at least 70%. The MHC with Erythrocyte was over 128 µM.
For `CC(C)C[C@H](NC(=O)[C@H](CCCNC(=N)N)NC(=O)[C@H](Cc1c[nH]c2ccccc12)NC(=O)[C@H](CCCNC(=N)N)NC(=O)[C@@H](NC(=O)[C@H](CCCCN)NC(=O)[C@H](Cc1c[nH]c2ccccc12)NC(=O)[C@H](CCCNC(=N)N)NC(=O)[C@H](CC(C)C)NC(=O)[C@H](CCCNC(=N)N)NC(=O)[C@@H](N)CCCNC(=N)N)[C@@H](C)O)C(=O)N[C@@H](CCCCN)C(N)=O` (H-RRLRWKTRWRLK-NH2), the MIC with Staphylococcus aureus [1] amounted to 16 µM (≈ 28.1 µg/mL); with Escherichia coli [3] it was 4 µM (≈ 7.02 µg/mL); in data set [4], 16 µM (≈ 28.1 µg/mL); against Staphylococcus aureus [6], 16 µM (≈ 28.1 µg/mL); with Escherichia coli [7] it was 16 µM (≈ 28.1 µg/mL); in the data set with Salmonella typhimurium, 32 µM (≈ 56.1 µg/mL). Moreover, the selectivity ratio in data set [2] was 18. The viability at 24 h in data set [5] was at least 70%. Besides, the MHC in the data set on Erythrocyte is over 128 µM.
For `CC(C)[C@H](NC(=O)[C@H](CCCNC(=N)N)NC(=O)[C@H](Cc1c[nH]c2ccccc12)NC(=O)[C@H](CCCNC(=N)N)NC(=O)[C@@H](NC(=O)[C@H](CCCNC(=N)N)NC(=O)[C@H](Cc1c[nH]c2ccccc12)NC(=O)[C@H](CCCNC(=N)N)NC(=O)[C@@H](NC(=O)[C@H](CCCNC(=N)N)NC(=O)[C@@H](N)Cc1c[nH]c2ccccc12)C(C)C)C(C)C)C(=O)N[C@@H](CCCNC(=N)N)C(N)=O` (H-WRVRWRVRWRVR-NH2), the MIC against Staphylococcus aureus [8] was 1 µM (≈ 1.81 µg/mL); with Staphylococcus aureus [1], 1 µM (≈ 1.81 µg/mL); with Acinetobacter baumannii [9] it was 2 µM (≈ 3.62 µg/mL); in the data set on Escherichia coli [3], 2 µM (≈ 3.62 µg/mL); in the data set with Acinetobacter baumannii [10] it was 2 µM (≈ 3.62 µg/mL); in [4], 2 µM (≈ 3.62 µg/mL). The MIC stood at 2 µM (≈ 3.62 µg/mL) against Staphylococcus aureus [6]; 2 µM (≈ 3.62 µg/mL) with Escherichia coli [12]; 4 µM (≈ 7.24 µg/mL) in the data set on Escherichia coli [7]; 4 µM (≈ 7.24 µg/mL) in the data set on Salmonella typhimurium; 4 µM (≈ 7.24 µg/mL) in the data set with Pseudomonas aeruginosa. In addition, in data set [2], the selectivity ratio is 114. Moreover, the viability at 24 h in data set [11] was over 90%. In addition, the MHC in the data set on Erythrocyte is over 128 µM.
